# Assay results reported in patent publication US20230091810A1, “FIRST-IN-CLASS OF SHMT2 AND MTHFD2 INHIBITORS AS ANTITUMOR AGENTS” (Duquesne University of the Holy Spirit, priority 2017, published 2023).
# pIC50: −log10 of the molar value. Read-outs that look alike come from different tables or passages of the source.
# How the values were obtained:
# RT16 (FR alpha) (CHO) = experiment: proliferation assay, RT16 CHO cells expressing FR alpha only; type: cell-based, Chinese hamster; conditions: folate-/glycine-free RPMI1640 with 25 nM leucovorin, 96 h, read-out: IC50s (SE) RT16 (FR alpha) (CHO)
# Procedure: Proliferation assays were performed with engineered Chinese hamster ovary (CHO) cell lines R2 (transporter-null), PC43-10 (expresses RFC only), RT16 (FRα only), and R2/PCFT4 (PCFT only) cultured in folate-/glycine-free RPMI1640 supplemented with 25 nM leucovorin. Additional results are shown for HCT116 (colon tumor cells (CTC)), IGROV1 (epithelial ovarian cancer (EOC) cells), H460 (non-small cell lung cancer (NSCLC) cells), MIAPaCa-2 (pancreatic cancer (PaC) cells), and HPAC (PaC).
# For proliferation assays with the CHO cell lines, the cells were treated with drugs (0-1 µM) in a 96-well plate (2000 cells/well) in glycine-free, nucleoside-free folate-free RPMI supplemented with 10% dialyzed fetal bovine serum, 1% penicillin/streptomycin, 2 mM L-glutamine, and 25 nM leucovorin (final volume 200 µL) over a 96 h incubation period at 37° C. with 5% CO2. The drugs were dissolved in DMSO; an equivalent amount of DMSO was added to the control (no addition) samples. To quantify viable cells, the media was removed and plates were washed once with 100 µL Dulbecco’s Phosphate-Buffered Saline (PBS), after which 100 µL PBS and 20 µL Cell Titer-blue (Promega) were added. Relative cell numbers were proportional to the fluorescence measured with a fluorescence plate reader (590 nm emission, 560 nm excitation). Background fluorescence (cell-free wells treated with Cell Titer-blue) was subtracted and these corrected values were normalized to results for cells treated in an identical manner without drugs.
# R2/PCFT4 (CHO) = experiment: proliferation assay, R2/PCFT4 CHO cells expressing PCFT only; type: cell-based, Chinese hamster; conditions: Cricetulus griseus, folate-/glycine-free RPMI1640 with 25 nM leucovorin, 96 h, drug 0-1000 nM, read-out: IC50s (SE) R2/PCFT4 (CHO)
# Procedure: Cell culture and proliferation/protection assays. […] Cell lines were verified by STR analysis by Genetica DNA Laboratories (Burlington, NC). MTXRIIOua^R2-4 (i.e. R2) Chinese hamster ovary (CHO) cells were generously provided by Dr. Wayne Flintoff (University of Western Ontario) (54). […]
# For proliferation assays with the CHO cell lines, the cells were treated with drugs (0-1 µM) in a 96-well plate (2000 cells/well) in glycine-free, nucleoside-free folate-free RPMI supplemented with 10% dialyzed fetal bovine serum, 1% penicillin/streptomycin, 2 mM L-glutamine, and 25 nM leucovorin (final volume 200 µL) over a 96 h incubation period at 37° C. with 5% CO2. […] To quantify viable cells, the media was removed and plates were washed once with 100 µL Dulbecco’s Phosphate-Buffered Saline (PBS), after which 100 µL PBS and 20 µL Cell Titer-blue (Promega) were added. Relative cell numbers were proportional to the fluorescence measured with a fluorescence plate reader (590 nm emission, 560 nm excitation).
# [1] = test system: human MIA PaCa-2 pancreatic adenocarcinoma xenografts; experiment: in vivo efficacy trial with MIA PaCa-2 pancreatic cancer xenografts; parameters: species or system SCID mice
# Procedure: Female ICR SCID mice (10 weeks old; 19 g average body weight) were implanted bilaterally with human MIA PaCa-2 tumors. […] The mice were weighed and tumors were measured with a caliper two-to-three times weekly; mice were sacrificed when the cumulative tumor burden reached 1500 mg. Tumor weights were estimated from two-dimensional measurements, where tumor mass (in mg) = (a x b^2)/2, and a and b are the tumor length and width in mm, respectively. The tumor masses from both tumors on each mouse were added together, and the total mass per mouse was used for calculations of anti-tumor activity. Quantitative end-points include: (i) tumor growth delay [T-C, where T is the median time in days required for the treatment group tumors to reach a predetermined size (e.g., 1000 mg), and C is the median time in days for the control group tumors to reach the same size; tumor-free survivors are excluded from these calculations]; and (ii) T/C (in percent) when treatment (T) and control (C) groups for the control groups reached 700 mg in size (exponential growth phase). The median value of each group was determined (including zeros). Mouse weights were monitored as a gauge of drug toxicity.
# Female ICR SCID mice (10 weeks old; 19 g average body weight) were implanted bilaterally with human MIA PaCa-2 PaC tumors.
# In vivo efficacy trial with MIA PaCa-2 pancreatic cancer xenografts. Methods for in vivo maintenance of MIA PaCa-2 tumor xenografts and drug efficacy evaluations are analogous to those previously described (58, 62-67). MIA PaCa-2 human pancreatic cancer cells (5 × 10^6 cells/flank) were bilaterally implanted subcutaneously with tumor fragments (30-60 mg) with a 12-gauge trocar in female […] SCID mice (NCI Animal Production Program). The mice were 10 weeks old on day 0 (tumor implant) with an average body weight of 19 g. For the efficacy trial, the mice were maintained on either a folate-deficient diet from Harlan-Teklad (TD.00434) starting 14 days before subcutaneous tumor implant to ensure serum folate levels would approximate those of humans. A separate cohort of mice was fed a folate-replete control diet from Lab Diet (5021). Mice were supplied with food and water ad libitum. Serum folate concentrations were monitored prior to tumor implant and post study by Lactobacillus casei bioassay (68). The mice in each group (folate-deficient and standard diet) were pooled before unselective distribution to the treatment and control groups. […] The drugs were dissolved in 5% ethanol (v/v), 1% Tween-80 (v/v), and 0.5% NaHCO3 and were administered intravenously (0.2 ml/injection). The mice were weighed and tumors were measured with a caliper two-to-three times weekly; mice were sacrificed when the cumulative tumor burden reached 1500 mg. Tumor weights were estimated from two-dimensional measurements, where tumor mass (in mg) = (a × b^2)/2, and a and b are the tumor length and width in mm, respectively. The tumor masses from both tumors on each mouse were added together, and the total mass per mouse was used for calculations of anti-tumor activity. Quantitative end-points include: (i) tumor growth delay [T-C, where T is the median time in days required for the treatment group tumors to reach a predetermined size (e.g., 1000 mg), and C is the median time in days for the control group tumors to reach the same size; tumor-free survivors are excluded from these calculations]; and (ii) T/C (in percent) when treatment (T) and control (C) groups for the control groups reached 700 mg in size (exponential growth phase). The median value of each group was determined (including zeros). Mouse weights were monitored as a gauge of drug toxicity.
# [2] = IV, AGF291 Q6dx3 start d3, total 23.5 mg/kg, Gemcitabine Q4dx4 start d3, total 480 mg/kg
Molecule,"pIC50 (RT16 (FR alpha) (CHO); Cricetulus griseus, RT16)",pIC50 (R2/PCFT4 (CHO)),"Mean Body Weight Loss (g/mouse) [1, 2] [g/mouse]","Percent Body Weight Loss [1, 2] [%]","median tumor burden on day 14 ([1]; day 14, control cohort 1321 mg) [mg]","Median Tumor Burden in mg on d16 (range) ([1]; day 16, IV, AGF291 total 23.5 mg/kg, Gemcitabine total 480 mg/kg)","Tumor Free on d52 ([1]; day 52, mice tumor free/total)","Tumor Growth Delay (T-C) ([1]; median T-C to reach 1000 mg, AGF291 total 23.5 mg/kg, Gemcitabine total 480 mg/kg) [days]","Time to 1000 mg in days (range) ([1]; median, IV, AGF291 total 23.5 mg/kg, Gemcitabine total 480 mg/kg)","weight loss (median nadir) ([1]; nadir on day 17 for AGF291, day 6 for GEM, completely reversible after cessation of therapy) [%]","T/C% ([1]; treated/control median tumor burden, AGF291 7.75 mg/kg/inj Q6dx3, GEM 120 mg/kg/inj every 4 days, start day 3) [%]",pIC50 (RT16 (FR alpha) (CHO)),"T-C (1000 mg) ([1]; AGF347 Q2dx8 at 15 mg/kg/inj, total dose 120 mg/kg, start day 3) [days]","mice disease-free at 122 days ([1]; AGF347 Q2dx8 at 15 mg/kg/inj, total dose 120 mg/kg, 122 days)"
Nc1nc2ccn(CCCc3ccc(C(=O)N[C@@H](CCC(=O)O)C(=O)O)cc3)c2c(=O)[nH]1 [AGF291],6.93,6.55,-1.8,-8.9,256,334 (0-1221) mg,0/5,10.5,23.0 (15.0-51) days,9,19,–,–,–
Nc1nc2ccn(CCCCCc3ccc(C(=O)N[C@@H](CCC(=O)O)C(=O)O)s3)c2c(=O)[nH]1 [AGF320],–,–,–,–,–,–,–,–,–,–,–,6.81,–,–
"(2-amino-4-oxo-3,4-dihydro-5H-pyrrolo[3,2-d]pyrimidin-5-yl)butyl)-2-fluorobenzoyl)-L-glutamic acid [AGF347]",–,–,–,–,–,–,–,–,–,–,–,8.03,54,1/5
